These are literature values, as cited in patent US9572894B2, “Biodegradable particulate formulations” (The University of Iowa Research Foundation, priority 2010, dated 2017).

The subject of this data set is gliomas. The conditions noted are these: ten daily i.t. injections.

Each structure is given as a SMILES string.

As to `COc1cccc2c1C(=O)c1c(O)c3c(c(O)c1C2=O)C[C@@](O)(C(=O)CO)C[C@@H]3O[C@H]1C[C@H](N)[C@H](O)[C@H](C)O1` [doxorubicin], the reported toxicity entry is on record as “limited to headache” and the “subjects with local regression” value was “six of the ten”.
